Source: article PMC11786723, “Endoplasmic reticulum membrane remodeling by targeting reticulon-4 induces pyroptosis to facilitate antitumor immune” (Protein & Cell, 2024)

Assays:
reticulon-4 (RTN4/Nogo) [1] = target: T1, reticulon-4 (RTN4/Nogo) (Homo sapiens, UniProt Q9NQC3); assay: microscale thermophoresis (MST); HuProt human proteome microarray and competitive pull-down; assay type: binding; parameters: RTN4B isoform predominantly captured in pull-down; MST construct printed only as RTN4
T1 sequence (Q9NQC3 1-373 isoform Q9NQC3-2): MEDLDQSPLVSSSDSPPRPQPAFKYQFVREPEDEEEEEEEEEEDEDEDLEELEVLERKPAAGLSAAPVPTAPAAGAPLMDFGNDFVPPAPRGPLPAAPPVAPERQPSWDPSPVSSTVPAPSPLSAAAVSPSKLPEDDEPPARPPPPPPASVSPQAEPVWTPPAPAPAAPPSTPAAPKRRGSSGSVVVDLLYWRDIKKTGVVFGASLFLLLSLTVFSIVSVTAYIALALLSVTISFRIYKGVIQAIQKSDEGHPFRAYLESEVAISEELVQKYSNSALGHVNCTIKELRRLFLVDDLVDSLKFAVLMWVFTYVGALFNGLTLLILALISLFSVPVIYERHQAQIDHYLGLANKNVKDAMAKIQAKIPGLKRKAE

reticulon-4 (RTN4/Nogo) [2] = target: T1, reticulon-4 (RTN4/Nogo); assay: microscale thermophoresis (MST); supported by competitive pull-down; assay type: binding; parameters: RTN4B isoform focused on; MST construct printed only as RTN4

Row | Compound | Kd (reticulon-4 (RTN4/Nogo) [1]) | Kd (reticulon-4 (RTN4/Nogo) [2])
1 | biotin-α-MG | 39 ± 1.09 nM | 
2 | COc1c(O)cc2oc3cc(O)c(CC=C(C)C)c(O)c3c(=O)c2c1CC=C(C)C [α-MG, α-mangostin] |  | 12.1 ± 1.28 nM
